# Measured values: PubChem BioAssay AID328 (DTP/NCI, 2004)
# Values joined by “and” are separate entries in the source; they are usually repeats but may differ in a detail not shown here. Equal entries are not always repeated. Toxic doses and inconclusive results are not listed.
# System: BDF1 mice, P388 leukemia ip, median survival T/C
# Experiment: NCI In Vivo Anticancer Drug Screen. Data for tumor model P388 Leukemia (intraperitoneal) in B6D2F1 (BDF1) mice
# Details: endpoint: median survival time, higher = longer survival
# Procedure, shortened: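 T/C = treated-group survival ÷ vehicle-control survival; tumour transplanted into mice before dosing.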
# [1] = dose: 100.0 mg/kg/injection, schedule: Q01DX009 (ip), vehicle: saline
# [2] = dose: 100.0 mg/kg/injection, schedule: Q04DX003 (ip), vehicle: saline
# [3] = dose: 50.0 mg/kg/injection, schedule: Q01DX009 (ip), vehicle: saline with Tween-80
# [4] = dose: 100.0 mg/kg/injection, schedule: Q01DX009 (ip), vehicle: saline with Tween-80
# [5] = dose: 200.0 mg/kg/injection, schedule: Q01DX009 (ip), vehicle: saline with Tween-80
# [6] = dose: 400.0 mg/kg/injection, schedule: Q01DX009 (ip), vehicle: saline with Tween-80
# [7] = dose: 100.0 mg/kg/injection, schedule: Q04DX003 (ip), vehicle: saline with Tween-80
# [8] = dose: 200.0 mg/kg/injection, schedule: Q04DX003 (ip), vehicle: saline with Tween-80
# [9] = dose: 400.0 mg/kg/injection, schedule: Q04DX003 (ip), vehicle: saline with Tween-80
# [10] = dose: 200.0 mg/kg/injection, schedule: Q01DX009 (ip), vehicle: saline
# [11] = dose: 200.0 mg/kg/injection, schedule: Q04DX003 (ip), vehicle: saline
# [12] = dose: 400.0 mg/kg/injection, schedule: Q01DX009 (ip), vehicle: saline
# [13] = dose: 400.0 mg/kg/injection, schedule: Q04DX003 (ip), vehicle: saline
# [14] = dose: 100.0 mg/kg/injection, schedule: Q04DX003 (ip), vehicle: Klucel (hydroxypropylcellulose) (HPC)
# [15] = dose: 200.0 mg/kg/injection, schedule: Q04DX003 (ip), vehicle: Klucel (hydroxypropylcellulose) (HPC)
smiles,measurement,setting,value
CCOC(=O)Nc1nc(Cl)c(Cl)nc1Cl,T/C,"dose: 0.78 mg/kg/injection, schedule: Q01DX009 (ip), vehicle: water",105 % of control
same,T/C,"dose: 1.56 mg/kg/injection, schedule: Q01DX009 (ip), vehicle: water",114 % of control
same,T/C,"dose: 3.12 mg/kg/injection, schedule: Q01DX009 (ip), vehicle: water",96 % of control
same,T/C,"dose: 6.25 mg/kg/injection, schedule: Q01DX009 (ip), vehicle: water",100 % of control and 110 % of control
same,T/C,"dose: 6.25 mg/kg/injection, schedule: Q04DX003 (ip), vehicle: water",90 % of control
same,T/C,"dose: 12.5 mg/kg/injection, schedule: Q01DX009 (ip), vehicle: water",91 % of control and 95 % of control
same,T/C,"dose: 12.5 mg/kg/injection, schedule: Q04DX003 (ip), vehicle: water",266 % of control and 102 % of control
same,T/C,"dose: 25.0 mg/kg/injection, schedule: Q01DX009 (ip), vehicle: water",100 % of control
same,T/C,"dose: 25.0 mg/kg/injection, schedule: Q04DX003 (ip), vehicle: water",269 % of control
same,T/C,"dose: 50.0 mg/kg/injection, schedule: Q01DX009 (ip), vehicle: water",87 % of control and 89 % of control
same,T/C,"dose: 50.0 mg/kg/injection, schedule: Q04DX003 (ip), vehicle: water",266 % of control and 116 % of control
same,T/C,"dose: 100.0 mg/kg/injection, schedule: Q01DX009 (ip), vehicle: water",89 % of control and 95 % of control
same,T/C,"dose: 200.0 mg/kg/injection, schedule: Q01DX009 (ip), vehicle: water",105 % of control and 108 % of control
same,T/C,"dose: 400.0 mg/kg/injection, schedule: Q01DX009 (ip), vehicle: water",118 % of control
CCOC(=O)CC/[N+]([O-])=C/c1ccccc1,T/C,"dose: 12.5 mg/kg/injection, schedule: Q01DX009 (ip), vehicle: other",97 % of control
same,T/C,"dose: 25.0 mg/kg/injection, schedule: Q01DX009 (ip), vehicle: other",112 % of control
same,T/C,"dose: 50.0 mg/kg/injection, schedule: Q01DX009 (ip), vehicle: other",92 % of control
same,T/C,"dose: 100.0 mg/kg/injection, schedule: Q01DX009 (ip), vehicle: other",97 % of control
same,T/C,"dose: 200.0 mg/kg/injection, schedule: Q01DX009 (ip), vehicle: other",104 % of control
CCOC(=O)C(C(=O)OCC)C1c2ccccc2C(=O)N(CCN(C)C)c2ccccc21 (configuration not stated),T/C,"dose: 25.0 mg/kg/injection, schedule: Q01DX009 (ip), vehicle: saline",109 % of control
same,T/C,"dose: 50.0 mg/kg/injection, schedule: Q01DX009 (ip), vehicle: saline",95 % of control
same,T/C,"dose: 50.0 mg/kg/injection, schedule: Q04DX003 (ip), vehicle: saline",91 % of control
same,T/C,[1],104 % of control
same,T/C,[2],87 % of control
CC(C)CN(CC(C)C)C(=O)c1ccc(Cl)c(Cl)c1,T/C,"dose: 25.0 mg/kg/injection, schedule: Q01DX009 (ip), vehicle: saline with Tween-80",91 % of control
same,T/C,[3],103 % of control
same,T/C,[4],107 % of control
same,T/C,[5],94 % of control
Clc1ccc(-c2ncnc3c2Cc2ccccc2-3)cc1,T/C,[4],112 % of control
same,T/C,[5],116 % of control
same,T/C,[6],100 % of control
COc1cc(OC)cc(C2N(Cc3ccc(OC)c(OC)c3)CCN2Cc2ccc(OC)c(OC)c2)c1,T/C,[4],100 % of control
same,T/C,[7],100 % of control
same,T/C,[5],109 % of control
same,T/C,[8],100 % of control
same,T/C,[6],109 % of control
same,T/C,[9],115 % of control
CCCCCCCCSC(=S)N(C)NC(=O)c1ccccn1,T/C,[3],99 % of control
same,T/C,[4],105 % of control
Cc1ncc([N+](=O)[O-])n1CCSC(N)=O,T/C,[7],120 % of control
same,T/C,[8],160 % of control
CC1(C)N=C(N)N=C(N)N1c1ccc(C(=O)CCl)cc1,T/C,"dose: 10.0 mg/kg/injection, schedule: Q01DX009 (ip), vehicle: saline",108 % of control
same,T/C,"dose: 20.0 mg/kg/injection, schedule: Q01DX009 (ip), vehicle: saline",108 % of control
same,T/C,"dose: 40.0 mg/kg/injection, schedule: Q01DX009 (ip), vehicle: saline",118 % of control
O=C1N/C(=N\c2nc3ccccc3s2)c2ccccc21,T/C,"dose: 3.13 mg/kg/injection, schedule: Q01DX009 (ip), vehicle: saline with Tween-80",90 % of control
same,T/C,"dose: 6.25 mg/kg/injection, schedule: Q01DX009 (ip), vehicle: saline with Tween-80",92 % of control
same,T/C,"dose: 12.5 mg/kg/injection, schedule: Q01DX009 (ip), vehicle: saline with Tween-80",92 % of control
BrC1C2CC(c3ccccc32)C1Br (configuration not stated),T/C,"dose: 100.0 mg/kg/injection, schedule: Q01DX001 (ip), vehicle: saline",109 % of control
same,T/C,[1],100 % of control
same,T/C,[2],100 % of control
same,T/C,"dose: 200.0 mg/kg/injection, schedule: Q01DX001 (ip), vehicle: saline",104 % of control
same,T/C,[10],104 % of control
same,T/C,[11],91 % of control
same,T/C,"dose: 400.0 mg/kg/injection, schedule: Q01DX001 (ip), vehicle: saline",100 % of control
same,T/C,[12],109 % of control
same,T/C,[13],104 % of control
Cc1cccc(CSc2nc(N)nc3ncn(C4CC(O)C(CO)O4)c23)n1 (configuration not stated),T/C,[1],103 % of control
same,T/C,[2],100 % of control
same,T/C,[10],97 % of control
same,T/C,[11],104 % of control
same,T/C,[12],103 % of control
same,T/C,[13],100 % of control
CCOC(=O)c1cnc(=O)[nH]c1N,T/C,[3],99 % of control
CCOC(=O)CNC(=O)C(CSSCC(NC(=O)OCc1ccccc1)C(=O)NCC(=O)OCC)NC(=O)OCc1ccccc1 (configuration not stated),T/C,[14],118 % of control
same,T/C,[15],86 % of control
same,T/C,"dose: 400.0 mg/kg/injection, schedule: Q04DX003 (ip), vehicle: Klucel (hydroxypropylcellulose) (HPC)",109 % of control
CC(C)(C)c1cc(C(=O)O)c(Sc2c(C(=O)O)cc(C(C)(C)C)cc2C(C)(C)O)c(C(C)(C)O)c1,T/C,"dose: 100.0 mg/kg/injection, schedule: Q01DX001 (ip), vehicle: saline with Tween-80",101 % of control
same,T/C,"dose: 200.0 mg/kg/injection, schedule: Q01DX001 (ip), vehicle: saline with Tween-80",101 % of control
same,T/C,"dose: 400.0 mg/kg/injection, schedule: Q01DX001 (ip), vehicle: saline with Tween-80",113 % of control
O=C(O)CCSc1nc2ccccc2s1,T/C,"dose: 50.0 mg/kg/injection, schedule: Q04DX003 (ip), vehicle: Klucel (hydroxypropylcellulose) (HPC)",100 % of control
same,T/C,[14],100 % of control
same,T/C,[15],113 % of control
CS(=O)(=O)OCC(=O)NCCNC(=O)COS(C)(=O)=O,T/C,[8],152 % of control
same,T/C,"dose: 264.0 mg/kg/injection, schedule: Q04DX003 (ip), vehicle: saline with Tween-80",160 % of control
same,T/C,"dose: 264.0 mg/kg/injection, schedule: Q04DX003 (ip), vehicle: saline",165 % of control
same,T/C,[9],169 % of control and 180 % of control
same,T/C,[13],152 % of control
same,T/C,"dose: 600.0 mg/kg/injection, schedule: Q04DX003 (ip), vehicle: saline",182 % of control
COc1cc2c(c(OC)c1OC)-c1ccc(OC)c(=O)cc1[C@@H](NC=O)CC2,T/C,"dose: 0.05 mg/kg/injection, schedule: Q01DX009 (ip), vehicle: Klucel (hydroxypropylcellulose) (HPC)",120 % of control
same,T/C,"dose: 0.09 mg/kg/injection, schedule: Q01DX009 (ip), vehicle: Klucel (hydroxypropylcellulose) (HPC)",160 % of control
same,T/C,"dose: 0.19 mg/kg/injection, schedule: Q01DX009 (ip), vehicle: Klucel (hydroxypropylcellulose) (HPC)",160 % of control
same,T/C,"dose: 0.37 mg/kg/injection, schedule: Q01DX010 (ip), vehicle: saline",154 % of control
same,T/C,"dose: 0.38 mg/kg/injection, schedule: Q01DX009 (ip), vehicle: Klucel (hydroxypropylcellulose) (HPC)",190 % of control
same,T/C,"dose: 0.38 mg/kg/injection, schedule: Q01DX010 (ip), vehicle: saline",158 % of control
same,T/C,"dose: 0.75 mg/kg/injection, schedule: Q01DX009 (ip), vehicle: Klucel (hydroxypropylcellulose) (HPC)",100 % of control
same,T/C,"dose: 0.75 mg/kg/injection, schedule: Q01DX010 (ip), vehicle: saline",170 % of control
same,T/C,"dose: 6.3 micrograms/kg/injection, schedule: Q01DX010 (ip), vehicle: saline",100 % of control
same,T/C,"dose: 12.0 micrograms/kg/injection, schedule: Q01DX009 (ip), vehicle: Klucel (hydroxypropylcellulose) (HPC)",100 % of control
same,T/C,"dose: 12.5 micrograms/kg/injection, schedule: Q01DX010 (ip), vehicle: saline",88 % of control
same,T/C,"dose: 23.0 micrograms/kg/injection, schedule: Q01DX009 (ip), vehicle: Klucel (hydroxypropylcellulose) (HPC)",120 % of control
same,T/C,"dose: 25.0 micrograms/kg/injection, schedule: Q01DX010 (ip), vehicle: saline",111 % of control
same,T/C,"dose: 50.0 micrograms/kg/injection, schedule: Q01DX010 (ip), vehicle: saline",111 % of control
